Experimental data from PMC10269819, “Mitochondrial ADP/ATP Carrier 1 Is Important for the Growth of Toxoplasma Tachyzoites” (Microbiology Spectrum, 2023).

Legend:
Format in all cases: cell-based
[1] = target: T1, TgAAC1 (Toxoplasma gondii, UniProt Q9BJ36); experiment: uptake of [α-32P]ATP by intact induced E. coli cells; conditions: labelled compound; 25 nM [α-32P]ATP; 50 mM potassium phosphate pH 7.0; 30 °C; uninduced cells as control
T1 construct: full-length cDNA (318 residues) in pET-16b, HA-tagged; expressed in membrane of intact E. coli BL21(DE3)
T1 sequence (Q9BJ36 1-318): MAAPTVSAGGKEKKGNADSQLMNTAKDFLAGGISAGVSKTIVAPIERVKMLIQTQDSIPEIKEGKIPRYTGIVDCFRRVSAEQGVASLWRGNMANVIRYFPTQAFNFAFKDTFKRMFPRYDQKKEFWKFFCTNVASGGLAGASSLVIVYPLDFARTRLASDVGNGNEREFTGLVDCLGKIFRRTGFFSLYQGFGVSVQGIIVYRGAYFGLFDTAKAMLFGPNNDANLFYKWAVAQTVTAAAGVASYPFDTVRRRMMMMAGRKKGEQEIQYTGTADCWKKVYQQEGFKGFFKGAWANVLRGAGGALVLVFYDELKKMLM

[2] = target: T1, TgAAC1; experiment: competition with [α-32P]ATP uptake by intact induced E. coli cells; conditions: unlabelled competitor 2.5 μM (100-fold excess); 25 nM [α-32P]ATP; 10 min; 50 mM potassium phosphate pH 7.0; 30 °C
[3] = target: T1, TgAAC1; experiment: as above; conditions: unlabelled competitor 2.5 μM (100-fold excess); 25 nM [α-32P]ATP; 10 min; 50 mM potassium phosphate pH 7.0; 30 °C; remark: listed apart in the source

Nc1ncnc2c1ncn2[C@@H]1O[C@H](COP(=O)(O)OP(=O)(O)OP(=O)(O)O)[C@@H](O)[C@H]1O [ATP]
uptake of [α-32P]ATP by intact induced E. coli cells [1]: TgAAC1 could take up more ATP after induction compared to the noninduced group
% reduction of [α-32P]-ATP transport at 2.5 μM [2]: ~ approximately 90%

Nc1ncnc2c1ncn2[C@@H]1O[C@H](COP(=O)(O)O)[C@@H](O)[C@H]1O [AMP]
% reduction of [α-32P]-ATP uptake at 2.5 μM [3]: 40%

Nc1ccn([C@@H]2O[C@H](COP(=O)(O)OP(=O)(O)OP(=O)(O)O)[C@@H](O)[C@H]2O)c(=O)n1 [CTP]
% reduction of [α-32P]-ATP uptake at 2.5 μM [3]: 45%

Nc1ncnc2c1ncn2[C@@H]1O[C@H](COP(=O)(O)OP(=O)(O)O)[C@@H](O)[C@H]1O [ADP]
% reduction of [α-32P]-ATP transport at 2.5 μM [2]: ~ approximately 90%
